Measured values published in US9139502B2, “Use of an urushiol compound in preparation of pharmaceutical compositions for inhibiting Smad3 phosphorylation” (Southern Hospital, Southern Medical University, priority 2013, dated 2015).

Key:
fibronectin = test: Western blot of TGF-β1-induced fibronectin protein in vitro; type: cell-based, rat; details: NRK 52E and NRK 49F cells, GQ-5 0.1-2.5 μM pre-treated 1 h, TGF-β1 10 ng/ml 48 h
Description: (§1) NRK52E and NRK49F cells were cultured in DMEM-Ham's medium supplemented with 10% fetal bovine serum. The cells reached at approximately 50% confluence were used for in vitro experiments. Cells were serum-starved for 12 h, and randomized into 6 groups: (1) Controls; (2) GQ-5 only; (3) TGF-β1 only; (4) TGF-β1+GQ-5 0.1 μM; (5) TGF-β1+GQ-5 0.5 μM; (6) TGF-β1+GQ-5 2.5 μM
(§2) (2) GQ-5 only: pre-treated with GQ-5 (2.5 μM) for 1 h, followed with DMEM for 48 h
(§3) (3) TGF-β1 only: pre-treated with DMSO for 1 h, followed with TGF-β1 (10 ng/ml) for 48 h
(§4) (4) TGF-β1+GQ-5 0.1 μM: pre-treated with GQ-5 (0.1 μM) for 1 h, followed with TGF-β1 (10 ng/ml) for 48 h
(§5) (5) TGF-β1+GQ-5 0.5 μM: pre-treated with GQ-5 (0.5 μM) for 1 h, followed with TGF-β1 (10 ng/ml) for 48 h
(§6) (6) TGF-β1+GQ-5 2.5 μM: pre-treated with GQ-5 (2.5 μM) for 1 h, followed with TGF-β1 (10 ng/ml) for 48 h
(§7) GQ-5 was dissolved in DMSO. Cells were treated as described. Cells lysates were immunebloted with antibodies against α-SMA, collagen I and fibronectin.

Smad7 = test: Western blot of Smad7 expression in vitro; type: cell-based, rat; details: NRK52E and NRK49F cells, GQ-5 2.5 nM pre-treated 1 h, TGF-β1 10 ng/ml 1 h
Description: (§8) NRK52E and NRK49F cells were cultured in DMEM-Ham's medium (Gibco, Life Techologies, NY, USA) supplemented with 10% fetal bovine serum (Gibco, Life Techologies, NY, USA). The cells reached at approximately 50% confluence were used for in vitro experiments. Cells were serum-starved for 12 h, and randomized into 4 groups: (1) Controls; (2) GQ-5 only; (3) TGF-β1 only; (4) TGF-β1+GQ-5
(§9) (2) GQ-5 only: pre-treated with GQ-5 (2.5 μM) for 1 h, followed with DMEM for 1 h
(§10) (3) TGF-β1 only: pre-treated with DMSO (0.1%) for 1 h, followed with TGF-β1 (10 ng/ml) for 1 h
(§11) (4) TGF-β1+GQ-5: pre-treated with GQ-5 (2.5 nM) for 1 h, followed with TGF-β1 (10 ng/ml) for 1 h
(§12) GQ-5 was dissolved in DMSO. Cells were treated as described. cell lysates were immunoblotted with antibodies against Smad4, Smad7, phospho-p38, p38, phospho-PI3K, PI3K, phosphor-ERK, and ERK.

Smad3 phosphorylation [1] = test: Smad3 phosphorylation in kidney tissue of UUO rats (immunohistochemistry, Western blot); type: in vivo, rat; details: GQ-5 40 mg/kg daily i.p. right after or 7 days after UUO, sacrificed day 14
Description: Male Sprague-Dawley rats with body weight 200 to 250 g were randomized into 4 groups (n=6 in each group): (1) sham operated rats; (2) UUO rats; (3) UUO+GQ-5 d1 rats; (4) UUO+GQ-5 d7 rats.
GQ-5 was dissolved in 5% propylene glycol.
(3) UUO+GQ-5 d1 rats: daily intraperitoneal injection of GQ-5 (40 mg/kg body weight) right after UUO;
(4) UUO+GQ-5 d7 rats: daily intraperitoneal injection of GQ-5 (40 mg/kg body weight) 7 days after UUO.
UUO was performed using an established protocol as described. GQ-5 was dissolved in 5% propylene glycol. Rats were administrated with GQ-5 as described before. All the rats were sacrificed 14 days after UUO. Immunohistochemical staining and Western blot analyses were performed to examine the Smad3 and Smad2 phosphorylation in kidney tissue.

α-SMA = test: Western blot of TGF-β1-induced α-SMA protein in vitro; type: cell-based, rat; details: NRK 52E and NRK 49F cells, GQ-5 0.1-2.5 μM pre-treated 1 h, TGF-β1 10 ng/ml 48 h
Description: as §1, §2, §3, §4, §5, §6, §7

PI3K = test: Western blot of TGF-β1-induced PI3K phosphorylation in vitro; type: cell-based, rat; details: NRK52E and NRK49F cells, GQ-5 2.5 nM pre-treated 1 h, TGF-β1 10 ng/ml 1 h
Description: as §8, §9, §10, §11, §12

Smad3 phosphorylation [2] = test: Western blot of TGF-β1-induced Smad3 phosphorylation in vitro; type: cell-based, rat
Description: as §1, with “2.5 μM.” for “2.5 μM”
as §9, §10
(4) TGF-β1+GQ-5 0.1 μM: pre-treated with GQ-5 (0.1 μM) for 1 h, followed with TGF-β1 (10 ng/ml) for 1 h
(5) TGF-β1+GQ-5 0.5 μM: pre-treated with GQ-5 (0.5 μM) for 1 h, followed with TGF-β1 (10 ng/ml) for 1 h
(6) TGF-β1+GQ-5 2.5 μM: pre-treated with GQ-5 (2.5 μM) for 1 h, followed with TGF-β1 (10 ng/ml) for 1 h.
GQ-5 was dissolved in DMSO. Cells were treated as described. Cell lysates were immunoblotted with antibodies against phospho-Smad3, Smad3, phospho-Smad2, Smad2.
NRK52E cells were cultured in DMEM-Ham's medium supplemented with 10% fetal bovine serum. The cells reached at approximately 50% confluence were used for in vitro experiments. Cells were serum-starved for 12 h, and randomized into 8 groups: (1) Controls; (2) GQ-5 only; (3) TGF-β1 0.5 h; (4) TGF-β1 0.5 h+GQ-5; (5) TGF-β1 1.0 h; (6) TGF-β1 1.0 h+GQ-5; (7) TGF-β1 3.0 h; (8) TGF-β1 3.0 h+GQ-5;
(4) TGF-β1 0.5 h+GQ-5: pre-treated with GQ-5 (2.5 μM) for 1 h, followed with TGF-β1 (10 ng/ml) for 0.5 h
(6) TGF-β1 1.0 h+GQ-5: pre-treated with GQ-5 (2.5 μM) for 1 h, followed with TGF-β1 (10 ng/ml) for 1.0 h
(8) TGF-β1 3.0 h+GQ-5: pre-treated with GQ-5 (2.5 μM) for 1 h, followed with TGF-β1 (10 ng/ml) for 3.0 h
GQ-5 was dissolved in DMSO. Cells were treated as described. Cell lysates were immunoblotted with antibodies against phospho-Smad3, Smad3, phospho-Smad2, and Smad2.

## CCCCCC/C=C\CCCCCCCc1cccc(O)c1O [GQ-5, 3-[(Z)-pentadec-8-enyl]catechol]
fibronectin
  TGF-β1-induced protein expression of fibronectin: significantly inhibited
Smad7
  protein expression of Smad7: did not affect
Smad3 phosphorylation [1]
  Smad3 phosphorylation in renal tissue: significantly inhibited
α-SMA
  TGF-β1-induced protein expression of α-SMA: significantly inhibited
PI3K
  TGF-β1-induced phosphorylation of PI3K: did not affect
Smad3 phosphorylation [2]; NRK52E and NRK49F cells, GQ-5 2.5 μM only
  inhibitory effect in the absence of TGF-β1 stimulation: almost undetectable
Smad3 phosphorylation [2]; NRK52E and NRK49F cells, GQ-5 0.1, 0.5, 2.5 μM pre-treated 1 h, TGF-β1 10 ng/ml 1 h
  TGF-β1-induced Smad3 phosphorylation, dose dependence: attenuated TGF-β1-induced Smad3 phosphorylation in a dose-dependent manner
Smad3 phosphorylation [2]; NRK52E cells, GQ-5 2.5 μM pre-treated 1 h, TGF-β1 10 ng/ml 0.5, 1.0, 3.0 h
  TGF-β1-induced Smad3 phosphorylation, time dependence: attenuated TGF-β1-induced Smad3 phosphorylation in a time-dependent manner
